Measurements taken from ChEMBL document CHEMBL1150499, “Excitatory amino acids: 6-phosphonomethyltetrahydro-4-pyrimidinecarboxylic acids and their acyclic analogues are competitive N-methyl-D-aspartic acid receptor antagonists” (Bioorg Med Chem Lett, 1992).

Target: Glutamate NMDA receptor
Assay: Compound was evaluated for its ability to displace […] binding for NMDA receptor
Assay type: protein-complex assay

Row | SMILES | IC50
1 | O=C(O)C1CN(CCCP(=O)(O)O)CCN1 (stereo not drawn) | 28 nM
2 | NC(CC(N)C(=O)O)CP(=O)(O)O (stereo not drawn) | 1440 nM
3 | NC(CC(O)CP(=O)(O)O)C(=O)O (stereo not drawn) | 130 nM
4 | NC(CC(CP(=O)(O)O)S(=O)O)C(=O)O (stereo not drawn) | 240 nM
5 | O=C(O)C1CC(CP(=O)(O)O)N=CN1 (stereo not drawn) | 5950 nM
6 | NC(CCCP(=O)(O)O)CC(N)C(=O)O (stereo not drawn) | 2270 nM
7 | O=C(O)C1CC(CCCP(=O)(O)O)N=CN1 (stereo not drawn) | 420 nM
8 | O=C(O)[C@@H]1C[C@H](CP(=O)(O)O)CCN1 [SELFOTEL] | 24 nM
